# From PubChem BioAssay AID1552 (Sanford-Burnham Center for Chemical Genomics, 2009)
# Active and inactive are the calls of the source. No rule for the calls is given here.
# Target: Ubiquitin-conjugating enzyme E2 N (Homo sapiens) (UniProt P61088)
# Test: NMR detection of UBE2N ligand binding – biophysical, purified protein (AID 1552)
# Conditions: NMR binding to purified UBE2N
# Ubiquitin-conjugating enzyme E2 N (Homo sapiens), sequence (P61088 whole entry, looked up): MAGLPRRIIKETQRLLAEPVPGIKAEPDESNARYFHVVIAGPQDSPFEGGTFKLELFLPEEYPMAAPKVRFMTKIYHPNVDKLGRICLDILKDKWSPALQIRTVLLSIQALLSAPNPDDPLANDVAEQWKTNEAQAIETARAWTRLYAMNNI
row,Compound,Kd
1,C/C=C(/C)C(=O)O[C@@H]1Cc2c(ccc3ccc(=O)oc23)OC1(C)C,> 4 mM (inactive)
2,Nc1nc2ncc(CNc3ccc(C(=O)N[C@@H](CCC(=O)O)C(=O)O)cc3)nc2c(=O)[nH]1,> 4 mM (inactive)
3,N#Cc1cc2ccccc2nc1N,> 4 mM (inactive)
4,NC(=O)c1ccsc1NC(=O)c1ccccc1[N+](=O)[O-],> 4 mM (inactive)
5,CC(=O)NC1C(=O)Nc2c(C)cc(C)cc21 (stereo not given),> 4 mM (inactive)
6,CSc1cccc(NC(=O)c2c(Cl)cnn2C)c1,> 4 mM (inactive)
7,O=C(O)CCCCCCCC(=O)O,> 4 mM (inactive)
8,CC(C)c1c(O)ccc2c1CCC1C(C)(C)CCC[C@]21C (stereo not given in full),> 4 mM (inactive)
9,CCOc1cc(C)c(Cl)cc1S(=O)(=O)N(C)C,> 4 mM (inactive)
10,COC(=O)c1c(SC)nc(-c2ccccc2)[nH]c1=O,> 4 mM (inactive)
11,OC1CCNC2CCCCC12 (stereo not given),> 4 mM (inactive)
12,Nc1c2c3c(sc2nc(=O)n1N)CCCC3,> 4 mM (inactive)
13,OCc1c[nH]c2ccccc12,> 4 mM (inactive)
14,C[C@@H]1OC(O[C@H]2C(O[C@H]3CC[C@@]4(C)C(CC[C@]5(C)C4CC=C4C6CC(C)(C)CC[C@]6(C(=O)O)CC[C@]45C)[C@]3(C)CO)OC[C@H](O)[C@@H]2O)[C@H](O)[C@H](O)[C@H]1O (stereo not given in full),> 4 mM (inactive)
15,CN(c1ccccc1C(=O)N1CCCC1)S(C)(=O)=O,> 4 mM (inactive)
16,COC(=O)c1cc(-c2c[nH]c3ccccc23)n[nH]1,> 4 mM (inactive)
17,CNC(=S)N1CCN(C(=O)c2ccco2)CC1,> 4 mM (inactive)
18,Cc1ccc(C(=O)NC2=NCCS2)o1,> 4 mM (inactive)
19,O=C1CCN(c2ccccc2)N1,> 4 mM (inactive)
20,CC1=C(C(N)=O)C(c2ccco2)C(C(N)=O)=C(C)N1,> 4 mM (inactive)
21,CC(=O)c1cc(-c2nc3ccccc3n2C)n(C)c1,> 4 mM (inactive)
22,CC(=O)O[C@H]1C(=O)[C@@]2(C)C([C@H](OC(=O)c3ccccc3)[C@]3(O)C[C@H](OC(=O)[C@H](O)[C@@H](NC(=O)c4ccccc4)c4ccccc4)C(C)=C1C3(C)C)[C@]1(OC(C)=O)CO[C@@H]1C[C@@H]2O (stereo not given in full),> 4 mM (inactive)
23,Nc1nc(-c2ccccc2)cc(=O)[nH]1,> 4 mM (inactive)
24,CCc1noc(C)c1C(=O)N1CCOCC1,> 4 mM (inactive)
25,Cn1nccc1N,> 4 mM (inactive)
26,COc1cc(C)nc(N(CCO)CCO)n1,> 4 mM (inactive)
27,NCc1cccc2c1OCCO2,> 4 mM (inactive)

row,Compound,Kd
1,COc1ccc2[nH]c(O)c(NC(C)=O)c2c1,> 4 mM (inactive)
2,O=C(O)C1CSC2(CCCCC2)N1 (stereo not given),> 4 mM (inactive)
3,Cc1cc(NC(=O)CS(=O)(=O)c2ccccc2)no1,> 4 mM (inactive)
4,COC(=O)c1cc2ccccc2cn1,> 4 mM (inactive)
5,COC(=O)Cc1cc(=O)n(-c2nc3ccccc3s2)[nH]1,> 4 mM (inactive)
6,COC(CC(=O)O)c1nc2ccccc2s1 (stereo not given),> 4 mM (inactive)
7,c1nnc2c3c4c(sc3ncn12)CCCC4,> 4 mM (inactive)
8,Cn1cnc([N+](=O)[O-])c1Sc1ncnc2nc[nH]c12,> 4 mM (inactive)
9,Cc1ccc(CO)o1,> 4 mM (inactive)
10,CC1=C(/C=C/C(C)=C/C=C/C(C)=C/C=C/C=C(C)/C=C/C=C(C)/C=C/C2=C(C)CCCC2(C)C)C(C)(C)CCC1,> 4 mM (inactive)
11,COc1ccc(C(=O)/C=C/c2ccccc2)cc1,> 4 mM (inactive)
12,Cn1nnc2cc(C(=O)Nc3cccnc3)ccc21,> 4 mM (inactive)
13,CC(=O)C1CC[C@H]2C3CC[C@H]4C[C@H](O)CC[C@]4(C)C3CC[C@]12C (stereo not given in full),> 4 mM (inactive)
14,CC(=O)N1CCN(c2ccc(O)cc2)CC1,> 4 mM (inactive)
15,Cc1cc(C)n(S(=O)(=O)c2ccc(C)c(C)c2C)n1,> 4 mM (inactive)
16,NC1=NN(c2ccccc2)C(=O)C1,> 4 mM (inactive)
17,Nc1ncnc2c1ncn2CCN1CCOCC1,> 4 mM (inactive)
18,O=C(O)c1cccnc1-c1nc2ccccc2s1,> 4 mM (inactive)
19,Cc1cc(C)nc(/N=C(/N)Nc2cccc(F)c2)n1,> 4 mM (inactive)
20,CNC(=S)Nc1ccc(OC)cc1C,> 4 mM (inactive)
21,c1ccc(SCc2nc(-c3ccncc3)no2)cc1,> 4 mM (inactive)
22,C=C1CCC2C(CC2(C)C)C(=O)CCC1O (stereo not given),> 4 mM (inactive)
23,O=S(=O)(N1CCCCC1)n1nnc2ccccc21,> 4 mM (inactive)
24,COc1ccccc1C(=O)NC1CCN(C)CC1,> 4 mM (inactive)
25,Cc1ccc(NC(=O)C2CCCNC2=O)nc1 (stereo not given),> 4 mM (inactive)
26,c1ccn(Cc2ccncc2)c1,> 4 mM (inactive)
27,COc1ccccc1NC(=O)CCC(=O)O,> 4 mM (inactive)

row,Compound,Kd
1,CC(=O)c1ccc[nH]1,> 4 mM (inactive)
2,O=C(O)C1CCN(S(=O)(=O)c2cccs2)CC1,> 4 mM (inactive)
3,O=C(NCN1CCOCC1)c1cnccn1,> 4 mM (inactive)
4,O=C(Nc1nncs1)c1c(F)c(F)c(F)c(F)c1F,> 4 mM (inactive)
5,CCCc1cc2c(c(NC(C)=O)n1)c(=O)oc1ccccc12,> 4 mM (inactive)
6,O=C1COc2ccccc2C(=O)N1,> 4 mM (inactive)
7,CN1CCN(C(=O)c2cc(-c3ccccc3)on2)CC1,> 4 mM (inactive)
8,CCN1CCN(CCCNc2ncnc3nc[nH]c23)CC1,> 4 mM (inactive)
9,O=C(NC(=S)NCc1cccnc1)c1ccco1,> 4 mM (inactive)
10,Cc1cc(C)n2nc(C(=O)Nc3cccnc3)nc2n1,> 4 mM (inactive)
11,CC(=O)Nc1ccc(NC(=O)c2ccnn2C)cc1,> 4 mM (inactive)
12,COC(=O)c1cccc(Cn2nnc3ccccc3c2=O)c1,> 4 mM (inactive)
13,Cc1nnc(SCc2ccon2)n1-c1ccccc1,> 4 mM (inactive)
14,O=NN1C(=O)c2ccccc2C1=O,> 4 mM (inactive)
15,CC(C)NC(=S)N1CCN(S(C)(=O)=O)CC1,> 4 mM (inactive)
16,NC(=O)CSc1ccc(Br)cc1,> 4 mM (inactive)
17,COc1ccc2c(c1OC)C(=O)O[C@@H]2[C@@H]1c2cc3c(cc2CCN1C)OCO3,> 4 mM (inactive)
18,CN1C2CC[C@@H]1CC(OC(=O)[C@H](CO)c1ccccc1)C2 (stereo not given in full),> 4 mM (inactive)
19,O=C(OC[C@H]1O[C@H](OC(=O)c2cc(O)c(O)c(OC(=O)c3cc(O)c(O)c(O)c3)c2)[C@H](OC(=O)c2cc(O)c(O)c(OC(=O)c3cc(O)c(O)c(O)c3)c2)[C@@H](OC(=O)c2cc(O)c(O)c(OC(=O)c3cc(O)c(O)c(O)c3)c2)[C@@H]1OC(=O)c1cc(O)c(O)c(OC(=O)c2cc(O)c(O)c(O)c2)c1)c1cc(O)c(O)c(OC(=O)c2cc(O)c(O)c(O)c2)c1,> 4 mM (inactive)
20,Cc1nc2ccc(F)cc2cc1C(=O)NCc1ccco1,> 4 mM (inactive)
21,C(=Nn1cnnc1)c1ccccc1,> 4 mM (inactive)
22,CSc1nnc2[nH]c(=O)cc(N)n12,> 4 mM (inactive)
23,CC(C)=CCc1c(O)cc2occ(-c3ccc4c(c3)OCO4)c(=O)c2c1O,> 4 mM (inactive)
24,CCN1CCC(NC2CCCCNC2=O)CC1 (stereo not given),> 4 mM (inactive)
25,Cc1ccc(C(=O)N2CCOCC2)cc1Cl,> 4 mM (inactive)
26,Cc1cc(C)n2nc(Cc3ccccc3)nc2n1,> 4 mM (inactive)
